Earlier results in publication PMC10323144, “Garbage in, garbage out: how reliable training data improved a virtual screening approach against SARS-CoV-2 MPro” (Frontiers in Pharmacology, 2023).
Peptide text beside a SMILES is read from it.

System: MPro
Details: compiled from peer-reviewed sources (287 compounds) ref the 18 original articles; cited from earlier work

Which “Class (MPro activity class)” value does the source give for CSCCC(C=O)NC(=O)C(CC(C)C)NC(=O)C(CC(C)C)NC(C)=O (stereo not drawn) [Calpain inhibitor II] (Ac-Leu-Leu-Met-aldehyde; configuration not given here) here?
The value was 1 (Compounds with IC50 < 10 µM or with a percentage of enzyme inhibition >50% at 10 µM were labelled as ACTIVE).

Which “Class (MPro activity class)” value does the source give for N#Cc1ccccc1-c1cc(-c2ccccn2)cn(-c2ccccc2)c1=O [1 (perampanel), perampanel] here?
The value was 0 (compounds with IC50 > 20 μM, percentage inhibition <80% at 20 µM or 50 μM, or percentage enzyme inhibition <50% at 10 µM were labelled as INACTIVE).

For CC(C)CCC(=O)CC1c2ccccc2C(=O)N1c1ccc2ccc(Cl)nc2n1 (stereo not shown) [PAGOCLONE], which “Class (MPro activity class)” value is on record?
Its value is 0 (compounds with IC50 > 20 μM, percentage inhibition <80% at 20 µM or 50 μM, or percentage enzyme inhibition <50% at 10 µM were labelled as INACTIVE).

For O=c1cc(-c2ccccc2)oc2cc(O)c(O)cc12 [6,7-Dihydroxyflavone], which “Class (MPro activity class)” value is on record?
The value was 0 (compounds with IC50 > 20 μM, percentage inhibition <80% at 20 µM or 50 μM, or percentage enzyme inhibition <50% at 10 µM were labelled as INACTIVE).

Which “Class (MPro activity class)” value does the source give for COc1cc(C2OCC3C(c4ccc(OC5OC(CO)C(O)C(O)C5O)c(OC)c4)OCC23)ccc1O (single isomer, unassigned; (+)) [(+)-Pinoresinol-4-O-β-D-glucopyraside] here?
Its value is 0 (compounds with IC50 > 20 μM, percentage inhibition <80% at 20 µM or 50 μM, or percentage enzyme inhibition <50% at 10 µM were labelled as INACTIVE).

Which “Class (MPro activity class)” value does the source give for C[C@H](NC(=O)/C(C#N)=C/c1cccc(Br)n1)c1ccccc1 [WP1066] here?
The value was 0 (compounds with IC50 > 20 μM, percentage inhibition <80% at 20 µM or 50 μM, or percentage enzyme inhibition <50% at 10 µM were labelled as INACTIVE).

Which “Class (MPro activity class)” value does the source give for Cc1[nH]c2ccccc2c1C=NN(C)C(=O)c1ccc2c(c1)OCO2 [LASSBio-1649 (13)] here?
The value was 0 (compounds with IC50 > 20 μM, percentage inhibition <80% at 20 µM or 50 μM, or percentage enzyme inhibition <50% at 10 µM were labelled as INACTIVE).

For C=CC(=O)N(c1ccc(C(C)(C)C)cc1)C(C(=O)Nc1ccc(OC)cc1OC)c1cccnc1 (stereo not shown) [LON-WEI-adc59df6-45], which “Class (MPro activity class)” value is on record?
Its value is 1 (Compounds with IC50 < 10 µM or with a percentage of enzyme inhibition >50% at 10 µM were labelled as ACTIVE).

Which “Class (MPro activity class)” value does the source give for COc1cc(OC)nc(O[C@H](C(=O)O)C(OC)(c2ccccc2)c2ccccc2)n1 here?
The value was 0 (compounds with IC50 > 20 μM, percentage inhibition <80% at 20 µM or 50 μM, or percentage enzyme inhibition <50% at 10 µM were labelled as INACTIVE).

With C=CC(=O)N(c1ccc(C(C)(C)C)cc1)C(C(=O)NCCc1cccc(F)c1)c1cccnc1 (stereo not shown) [LON-WEI-adc59df6-47] as the compound, how does the “Class (MPro activity class)” value read?
Its value is 1 (Compounds with IC50 < 10 µM or with a percentage of enzyme inhibition >50% at 10 µM were labelled as ACTIVE).

With Cc1cc(CCCOc2c(C)cc(-c3noc(C(F)(F)F)n3)cc2C)on1 [Pleconaril] as the compound, how does the “Class (MPro activity class)” value read?
The value was 0 (compounds with IC50 > 20 μM, percentage inhibition <80% at 20 µM or 50 μM, or percentage enzyme inhibition <50% at 10 µM were labelled as INACTIVE).

Which “Class (MPro activity class)” value does the source give for O=C(Nc1cccnc1)N(CCC1CCCCC1)c1cccc(Cl)c1 [JOR-UNI-2fc98d0b-12] here?
The value was 1 (Compounds with IC50 < 10 µM or with a percentage of enzyme inhibition >50% at 10 µM were labelled as ACTIVE).

Which “Class (MPro activity class)” value does the source give for CC(C)CC(NC(=O)OCc1ccccc1)C(=O)NC(CC1CCNC1=O)C(=O)C(=O)NC1CC1 (stereo not shown) [UAWJ246] here?
Its value is 1 (Compounds with IC50 < 10 µM or with a percentage of enzyme inhibition >50% at 10 µM were labelled as ACTIVE).

For O=C(O)[C@H]1O[C@@H](Oc2cc3oc(-c4ccccc4)cc(=O)c3c(O)c2O)[C@H](O)[C@@H](O)[C@@H]1O [Baicalin], which “Class (MPro activity class)” value is on record?
Its value is 0 (compounds with IC50 > 20 μM, percentage inhibition <80% at 20 µM or 50 μM, or percentage enzyme inhibition <50% at 10 µM were labelled as INACTIVE).

Which “Class (MPro activity class)” value does the source give for O=C(CCl)N1CC2CC1CN2Cc1cccc(Cl)c1 (stereo not shown) [DAN-LON-a5fc619e-8] here?
The value was 1 (Compounds with IC50 < 10 µM or with a percentage of enzyme inhibition >50% at 10 µM were labelled as ACTIVE).

With CC(C)CC(NC(=O)C1OC1C(=O)O)C(=O)NCCCCN=C(N)N (stereo not shown) [E-64] as the compound, how does the “Class (MPro activity class)” value read?
The value was 0 (compounds with IC50 > 20 μM, percentage inhibition <80% at 20 µM or 50 μM, or percentage enzyme inhibition <50% at 10 µM were labelled as INACTIVE).

Which “Class (MPro activity class)” value does the source give for COC[C@H](NC(=O)c1cnc(C)s1)C(=O)N[C@@H](COC)C(=O)N[C@@H](Cc1ccccc1)C(=O)[C@@]1(C)CO1 [Oprozomib] here?
The value was 0 (compounds with IC50 > 20 μM, percentage inhibition <80% at 20 µM or 50 μM, or percentage enzyme inhibition <50% at 10 µM were labelled as INACTIVE).

For COc1ccc2c(c1)CN(C(=O)CCl)C(c1ccccc1)C2 (stereo not shown) [NAU-LAT-64f4b287-4], which “Class (MPro activity class)” value is on record?
The value was 1 (Compounds with IC50 < 10 µM or with a percentage of enzyme inhibition >50% at 10 µM were labelled as ACTIVE).

Which “Class (MPro activity class)” value does the source give for CC(C)c1nc(CN(C)C(=O)N[C@H](C(=O)N[C@@H](Cc2ccccc2)C[C@H](O)[C@H](Cc2ccccc2)NC(=O)OCc2cncs2)C(C)C)cs1 [Ritonavir] here?
The value was 0 (compounds with IC50 > 20 μM, percentage inhibition <80% at 20 µM or 50 μM, or percentage enzyme inhibition <50% at 10 µM were labelled as INACTIVE).

Which “Class (MPro activity class)” value does the source give for O=C(/C=C/c1ccc(O)c(O)c1)O[C@@H]1C[C@](O)(C(=O)O)C[C@@H](O)[C@H]1O [Chlorogenic acid] here?
Its value is 0 (compounds with IC50 > 20 μM, percentage inhibition <80% at 20 µM or 50 μM, or percentage enzyme inhibition <50% at 10 µM were labelled as INACTIVE).

For O=c1sn(-c2cccc3ccccc23)c(=O)n1Cc1ccccc1 [Tideglusib], which “Class (MPro activity class)” value is on record?
Its value is 1 (Compounds with IC50 < 10 µM or with a percentage of enzyme inhibition >50% at 10 µM were labelled as ACTIVE).

Which “Class (MPro activity class)” value does the source give for NC(=O)[C@@H](CCC(F)(F)F)N(Cc1ccc(-c2ncon2)cc1F)S(=O)(=O)c1ccc(Cl)cc1 [Avagacestat] here?
Its value is 0 (compounds with IC50 > 20 μM, percentage inhibition <80% at 20 µM or 50 μM, or percentage enzyme inhibition <50% at 10 µM were labelled as INACTIVE).

Which “Class (MPro activity class)” value does the source give for CC(C)(C)C#Cc1cc(N(C(=O)[C@H]2CC[C@H](C)CC2)[C@H]2CC[C@H](O)CC2)c(C(=O)O)s1 [Lomibuvir] here?
Its value is 0 (compounds with IC50 > 20 μM, percentage inhibition <80% at 20 µM or 50 μM, or percentage enzyme inhibition <50% at 10 µM were labelled as INACTIVE).

Which “Class (MPro activity class)” value does the source give for O=c1[nH]cc(-c2cc(-c3cc(Cl)cc(OCc4c(F)cccc4F)c3)c(=O)n(-c3cccnc3)c2)c(=O)[nH]1 [compound 20] here?
The value was 1 (Compounds with IC50 < 10 µM or with a percentage of enzyme inhibition >50% at 10 µM were labelled as ACTIVE).

For CCCCOc1cc(Cl)cc(-c2cc(-c3c[nH]c(=O)[nH]c3=O)cn(-c3cccnc3)c2=O)c1 [compound 12], which “Class (MPro activity class)” value is on record?
Its value is 1 (Compounds with IC50 < 10 µM or with a percentage of enzyme inhibition >50% at 10 µM were labelled as ACTIVE).

For Cc1cc2nc3c(=O)[nH]c(=O)nc-3n(C[C@H](O)[C@H](O)[C@H](O)CO)c2cc1C [RIBOFLAVIN], which “Class (MPro activity class)” value is on record?
Its value is 0 (compounds with IC50 > 20 μM, percentage inhibition <80% at 20 µM or 50 μM, or percentage enzyme inhibition <50% at 10 µM were labelled as INACTIVE).

Which “Class (MPro activity class)” value does the source give for O=C1c2ccccc2NC(c2cc(Br)ccc2O)N1N=Cc1cc(Br)ccc1O (stereo not shown) [QZ1] here?
Its value is 0 (compounds with IC50 > 20 μM, percentage inhibition <80% at 20 µM or 50 μM, or percentage enzyme inhibition <50% at 10 µM were labelled as INACTIVE).

With COc1ccc(C2CC(c3cccs3)=NN2C(=O)CCl)cc1OC (stereo not shown) [MAT-POS-916a2c5a-1] as the compound, how does the “Class (MPro activity class)” value read?
The value was 1 (Compounds with IC50 < 10 µM or with a percentage of enzyme inhibition >50% at 10 µM were labelled as ACTIVE).

With TERIFLUNOMIDE as the compound, how does the “Class (MPro activity class)” value read?
Its value is 0 (compounds with IC50 > 20 μM, percentage inhibition <80% at 20 µM or 50 μM, or percentage enzyme inhibition <50% at 10 µM were labelled as INACTIVE).

With COc1cccc(Nc2c(C(N)=O)cnc3c(C)cc(S(=O)(=O)c4cccc(C(=O)N(C)C)c4)cc23)c1 [GSK-256066] as the compound, how does the “Class (MPro activity class)” value read?
The value was 0 (compounds with IC50 > 20 μM, percentage inhibition <80% at 20 µM or 50 μM, or percentage enzyme inhibition <50% at 10 µM were labelled as INACTIVE).

With O=C(Nc1cnn2ccc(N3CCC[C@@H]3c3cc(F)ccc3F)nc12)N1CC[C@H](O)C1 [LAROTRECTINIB] as the compound, how does the “Class (MPro activity class)” value read?
The value was 0 (compounds with IC50 > 20 μM, percentage inhibition <80% at 20 µM or 50 μM, or percentage enzyme inhibition <50% at 10 µM were labelled as INACTIVE).

With O=C(NC(Cc1ccccc1)C(=O)NC(CC1CCNC1=O)C(O)S(=O)(=O)O)OCc1ccccc1 (stereo not shown) [UAWJ247] as the compound, how does the “Class (MPro activity class)” value read?
The value was 1 (Compounds with IC50 < 10 µM or with a percentage of enzyme inhibition >50% at 10 µM were labelled as ACTIVE).

With CC(C)OC(=O)[C@H](C)N[P@](=O)(OC[C@H]1O[C@@H](n2ccc(=O)[nH]c2=O)[C@](C)(F)[C@@H]1O)Oc1ccccc1 [Sofosbuvir] as the compound, how does the “Class (MPro activity class)” value read?
The value was 0 (compounds with IC50 > 20 μM, percentage inhibition <80% at 20 µM or 50 μM, or percentage enzyme inhibition <50% at 10 µM were labelled as INACTIVE).

Which “Class (MPro activity class)” value does the source give for COc1cc(Cl)cc(OC(=O)Nc2cccnc2)c1 [AGN-NEW-891393a6-1] here?
Its value is 1 (Compounds with IC50 < 10 µM or with a percentage of enzyme inhibition >50% at 10 µM were labelled as ACTIVE).

Which “Class (MPro activity class)” value does the source give for Cc1ccncc1NC(=O)Cc1cccc(Cl)c1 [TRY-UNI-714a760b-6] here?
The value was 0 (compounds with IC50 > 20 μM, percentage inhibition <80% at 20 µM or 50 μM, or percentage enzyme inhibition <50% at 10 µM were labelled as INACTIVE).

With O=C(O)CC[C@H]1CC[C@@](c2cc(F)ccc2F)(S(=O)(=O)c2ccc(Cl)cc2)CC1 [MK-0752] as the compound, how does the “Class (MPro activity class)” value read?
The value was 0 (compounds with IC50 > 20 μM, percentage inhibition <80% at 20 µM or 50 μM, or percentage enzyme inhibition <50% at 10 µM were labelled as INACTIVE).

With CC(C)(C)OC(=O)Nc1cccn(C(CC2CC2)C(=O)NC(CC2CCNC2=O)C(=O)C(=O)NC2CC2)c1=O (stereo not shown) [compound 13b] as the compound, how does the “Class (MPro activity class)” value read?
Its value is 1 (Compounds with IC50 < 10 µM or with a percentage of enzyme inhibition >50% at 10 µM were labelled as ACTIVE).

Which “Class (MPro activity class)” value does the source give for O=C(C=Cc1ccc(O)c(O)c1)OC1C(O)CC(O)(C(=O)O)CC1O (stereo not shown) [Cryptochlorogenic acid] here?
Its value is 0 (compounds with IC50 > 20 μM, percentage inhibition <80% at 20 µM or 50 μM, or percentage enzyme inhibition <50% at 10 µM were labelled as INACTIVE).

Which “Class (MPro activity class)” value does the source give for CC(C)CC(NC(=O)OCc1ccccc1)C(=O)NC(C=O)CC1CCNC1=O (stereo not shown) [GC373] here?
The value was 1 (Compounds with IC50 < 10 µM or with a percentage of enzyme inhibition >50% at 10 µM were labelled as ACTIVE).

With O=C(Cc1cccc(Cl)c1)Nn1cnc2ccccc2c1=O [JAN-GHE-5a013bed-3] as the compound, how does the “Class (MPro activity class)” value read?
The value was 1 (Compounds with IC50 < 10 µM or with a percentage of enzyme inhibition >50% at 10 µM were labelled as ACTIVE).
